Source: patent US10253039B2, “Inhibitors of bacterial DNA gyrase with efficacy against gram-negative bacteria” (priority 2014, dated 2019)
≈ marks a conversion by molar mass, not a printed value. Read-outs that look alike come from different tables or passages of the source.

Experiments:
[1] = tested on: Acinetobacter baumannii; experiment: MIC, microdilution in 96-well plates; format: cell-based
Outline: (§1)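 Each of the 20 strains is tested in LB at a 1:10000 dilution of a growing subculture. Compound is titrated 2-fold in three replicates; a DMSO column serves as vehicle control. After shaking incubation at 37° C. for 16-18 hours, MIC is taken as the lowest clear concentration.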

[2] = tested on: Enterobacter aerogenes; experiment: MIC, microdilution in 96-well plates; format: cell-based; settings: Klebsiella aerogenes
Outline: as §1

[3] = tested on: Pseudomonas aeruginosa; experiment: MIC, microdilution in 96-well plates; format: cell-based
Outline: as §1

[4] = tested on: Edwardsiella tarda; experiment: MIC, microdilution in 96-well plates; format: cell-based
Outline: as §1

[5] = tested on: E. coli BW25113; experiment: MIC, microdilution in 96-well plates; format: cell-based; settings: Escherichia coli, read-out: MIC
Outline: as §1

[6] = tested on: Shigella flexneri; experiment: MIC, 20-strain panel; format: cell-based
Outline: as §1

[7] = tested on: Streptococcus agalactiae; experiment: MIC, 20-strain panel; format: cell-based
Outline: as §1

[8] = tested on: Staphylococcus epidermidis; experiment: MIC, 20-strain panel; format: cell-based
Outline: as §1

[9] = tested on: Staphylococcus aureus subsp. aureus; experiment: MIC, 20-strain panel; format: cell-based; settings: H: Staphylococcus aureus subsp. aureus, read-out: MIC
Outline: as §1

[10] = tested on: Klebsiella pneumoniae subsp. pneumoniae; experiment: MIC, 20-strain panel; format: cell-based
Outline: as §1

[11] = tested on: E. coli JW5503 (deltolC); experiment: MIC, 20-strain panel; format: cell-based; settings: Escherichia coli
Outline: as §1

[12] = tested on: Morganella morganii subsp. morganii; experiment: MIC, 20-strain panel; format: cell-based; settings: Morganella morganii
Outline: as §1

[13] = tested on: Staphylococcus saprophyticus subsp. saprophyticus; experiment: MIC, 20-strain panel; format: cell-based
Outline: as §1

[14] = tested on: Salmonella enterica subsp. enterica typhimurium; experiment: MIC, 20-strain panel; format: cell-based
Outline: as §1

[15] = tested on: Streptococcus pyogenes; experiment: MIC, 20-strain panel; format: cell-based
Outline: as §1

[16] = tested on: E. coli MG1655; experiment: MIC, 20-strain panel; format: cell-based; settings: Escherichia coli, read-out: MIC
Outline: as §1

[17] = tested on: E. coli BW25113 ΔtolC; experiment: MIC, microdilution in 96-well plates
[18] = tested on: E. coli BW25113 ΔtolC gyrR isolate GyrB Thr508Met; experiment: MIC against gyramide-resistant mutant
Experimental: (§2) A microdilution method in 96-well plates was used and the MIC protocol established by the Clinical Laboratory Standards Institute was followed. From a growing subculture, a 1:10000 inoculum of each strain in Luria-Bertani media was prepared and aliquoted 100 μL in 4 columns of wells, except for the top row wells, which contained 200 μL of inoculum. […] The liquid in each of wells was mixed with a multi-channel pipet and 100 μL was transferred to the next well and mixed. The 2-fold dilution was continued down the 96-well plate until 100 μL was left, which was discarded. The plates were incubated at 37° C. with shaking for 16-18 hours. The MIC was determined as the lowest concentration that inhibited growth and had no turbidity by visual inspection.

[19] = tested on: E. coli BW25113 ΔtolC gyrR isolate GyrA Ser97Pro; experiment: MIC against gyramide-resistant mutant
Experimental: as §2

[20] = tested on: E. coli BW25113 ΔtolC gyrR isolate GyrA His45Tyr; experiment: MIC against gyramide-resistant mutant
Experimental: as §2

[21] = tested on: E. coli BW25113 ΔtolC gyrR isolate GyrA Pro35Thr; experiment: MIC against gyramide-resistant mutant
Experimental: as §2

[22] = tested on: E. coli BW25113 ΔtolC gyrR isolate GyrA Phe96Leu; experiment: MIC against gyramide-resistant mutant
Experimental: as §2

[23] = tested on: E. coli BW25113 ΔtolC cipR isolate GyrA Ser83Leu; experiment: MIC against ciprofloxacin-resistant mutant; settings: cipR isolate GyrA Ser83Leu
Experimental: as §2

[24] = tested on: E. coli BW25113 ΔtolC cipR isolate GyrB Ser464Phe; experiment: MIC against ciprofloxacin-resistant mutant; settings: cipR isolate GyrB Ser464Phe
Experimental: as §2

[25] = tested on: ciprofloxacin resistant strains of E. coli; experiment: MIC against ciprofloxacin resistant strains compared to parent strain; settings: ratio to MIC of parent strain E. coli BW25113 ΔtolC
Experimental: as §2

[26] = tested on: E. coli BW25113 ΔtolC cipR isolate GyrA Asp87Tyr; experiment: MIC against ciprofloxacin-resistant mutant; settings: cipR isolate GyrA Asp87Tyr
Experimental: as §2

[27] = tested on: E. coli BW25113 ΔtolC cipR isolate GyrA Asp87Gly; experiment: MIC against ciprofloxacin-resistant mutant; settings: cipR isolate GyrA Asp87Gly
Experimental: as §2

[28] = Table 7, separate set of experiments

With `O=S(=O)(N[C@@H]1CCN(Cc2ccc(OC3CC3)cc2)C1)c1cccc(C(F)(F)F)c1` [Compound 156] the MIC [1] was > 16 µg/mL, the MIC [2] was > 16 µg/mL and the MIC [3] was > 16 µg/mL. It also gave an MIC ([4]; D: Edwardsiella tarda) of ~8 µg/mL (≈ 18.2 µM), an MIC [4, 28] of 16 µg/mL (≈ 36.3 µM) and an MIC ([5]; BW25113, B: E. coli BW25113) of ~8 µg/mL (≈ 18.2 µM). The MIC ([5]; BW25113, E. coli BW25113, Table 7, separate set of experiments) was 16 µg/mL (≈ 36.3 µM), the MIC ([6]; G: Shigella flexneri) was 8 µg/mL (≈ 18.2 µM) and the MIC [6, 28] was 8 µg/mL (≈ 18.2 µM). For the same compound, the MIC [7] was > 8 µg/mL, the MIC [8] was > 8 µg/mL and the MIC [9] was > 8 µg/mL. For the same compound, the MIC ([10]; E: Klebsiella pneumoniae subsp. pneumoniae) was > 8 µg/mL, the MIC ([10]; Klebsiella pneumoniae subsp. pneumoniae, Table 7, separate set of experiments) was > 16 µg/mL and the MIC ([11]; C: E. coli JW5503 (deltolC)) was 0.125 µg/mL (≈ 0.284 µM). The MIC ([11]; E. coli JW5503 (deltolC), Table 7, separate set of experiments) was 0.125 µg/mL (≈ 0.284 µM), the MIC [12] was > 16 µg/mL and the MIC [13] was > 8 µg/mL. For the same compound, the MIC ([14]; F: Salmonella enterica subsp. enterica Typhimurium) was 4 µg/mL (≈ 9.08 µM), the MIC ([14]; Salmonella enterica subsp. enterica typhimurium, Table 7, separate set of experiments) was 4 µg/mL (≈ 9.08 µM) and the MIC [15] was > 8 µg/mL. The MIC ([16]; MG1655, A: E. coli MG1655) was ~8 µg/mL (≈ 18.2 µM) and the MIC ([16]; MG1655, E. coli MG1655, Table 7, separate set of experiments) was 16 µg/mL (≈ 36.3 µM).
For `Cc1ccc(F)cc1S(=O)(=O)NC1CCN(Cc2ccc(OC(C)C)cc2)C1` (centres unmarked) [Gyramide A], the MIC ([17]; E. coli BW25113 ΔtolC (parent strain), Table 4) was 20 µM (≈ 8.13 µg/mL), the MIC ([18]; gyrR isolate GyrB Thr508Met) was 320 µM (≈ 130 µg/mL) and the MIC ([19]; gyrR isolate GyrA Ser97Pro) was 320 µM (≈ 130 µg/mL). The MIC ([20]; gyrR isolate GyrA His45Tyr) was 320 µM (≈ 130 µg/mL), the MIC ([21]; gyrR isolate GyrA Pro35Thr) was 320 µM (≈ 130 µg/mL) and the MIC ([22]; gyrR isolate GyrA Phe96Leu) was 320 µM (≈ 130 µg/mL).
`Cc1ccc(F)cc1S(=O)(=O)NC1CCN(Cc2ccc(-c3ccccc3)cc2)C1` (centres unmarked) [Gyramide C] was tested, and the MIC [23] was 2.5 µM (≈ 1.06 µg/mL), the MIC ([17]; E. coli BW25113 ΔtolC (parent strain), Table 5) was 2.5 µM (≈ 1.06 µg/mL) and the MIC [24] was 10 µM (≈ 4.25 µg/mL). The “MIC against ciprofloxacin resistant strains compared to the parent strain” value [25] was 1-4 times, the MIC [26] was 5 µM (≈ 2.12 µg/mL) and the MIC [27] was 5 µM (≈ 2.12 µg/mL).
With `CO[C@@H]1[C@@H](OC(N)=O)[C@@H](O)[C@H](Oc2ccc3c(O)c(NC(=O)c4ccc(O)c(CC=C(C)C)c4)c(=O)oc3c2C)OC1(C)C` [Novobiocin, novobiocin] the MIC ([17]; Escherichia coli, BW25113, E. coli BW25113 ΔtolC (parent strain), Table 4) was 1.25 µM (≈ 0.766 µg/mL), the MIC ([18]; Escherichia coli, BW25113) was 1.25 µM (≈ 0.766 µg/mL) and the MIC ([19]; Escherichia coli, BW25113) was 1.25 µM (≈ 0.766 µg/mL). The MIC ([20]; Escherichia coli, BW25113) was 1.25 µM (≈ 0.766 µg/mL), the MIC ([21]; Escherichia coli, BW25113) was 1.25 µM (≈ 0.766 µg/mL) and the MIC ([22]; Escherichia coli, BW25113) was 1.25 µM (≈ 0.766 µg/mL).
